Values joined by “and” are separate entries in the source; they are usually repeats but may differ in a detail not shown here. Identical values can stand only once.
Legend:
[1] = biological target: mTA1; conditions: read-out: affinity; cited from earlier work
[2] = biological target: T1, hTA1 (Homo sapiens, UniProt Q96RJ0); conditions: cited from earlier work
T1 construct: expressed in transfected cells; host or cells: HEK293T
T1 sequence (Q96RJ0 1-339): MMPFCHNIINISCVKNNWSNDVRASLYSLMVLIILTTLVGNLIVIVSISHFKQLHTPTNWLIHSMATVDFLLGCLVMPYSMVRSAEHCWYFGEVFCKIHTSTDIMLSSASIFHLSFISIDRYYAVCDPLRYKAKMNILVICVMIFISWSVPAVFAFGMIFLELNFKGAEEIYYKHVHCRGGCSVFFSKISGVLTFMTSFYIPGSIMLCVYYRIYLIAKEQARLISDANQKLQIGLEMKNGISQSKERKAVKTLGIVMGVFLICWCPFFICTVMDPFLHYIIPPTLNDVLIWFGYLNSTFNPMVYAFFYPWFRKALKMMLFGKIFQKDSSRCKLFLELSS

[3] = tested on: rTA1; conditions: cited from earlier work
[4] = biological target: T1, hTA1; conditions: antagonist; cited from earlier work
[5] = tested on: mTA1; conditions: cited from earlier work
[6] = tested on: DRD4 S^5.43A; conditions: S^5.43A mutation in DRD4; cited from earlier work
[7] = biological target: T1, hTA1; test: GloSensor cAMP accumulation assay, concentration response, wild-type hTA1 in transfected HEK293T cells; type: cell-based; conditions: log[Compound], replicate wells;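 note: luminescence read after 30 min compound exposure at room temperature in cells preloaded with D-Luciferin, reflecting Gs-driven cAMP rise, efficacy scaled to the maximal β-PEA response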
[8] = biological target: T1, hTA1; test: Screen of 89 aminergic compounds at 10 µM, cAMP accumulation in HEK293T cells; type: cell-based; conditions: 10 µM of compound; HEK293T; threshold log2-fold change of 2;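 note: HEK293T cells co-transfected with hTA1 and GloSensor cAMP reporter, cAMP accumulation detected by luminescence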

CCOc1cccc(NC(=O)c2ccc(N3CCCC3)c(C(F)(F)F)c2)c1 [EPPTB]
Ki [1]: ~1 nM
binding to hTA1 [2]: does not appear to bind hTA1

NCCc1c[nH]c2ccccc12 [tryptamine]
higher potency at rTA1 compared to hTA1 ([3]; rTA1 vs hTA1): over 50 fold

N#Cc1c(C(F)(F)F)cc(-c2ccc(Cl)cc2)nc1SCC(=O)Nc1ncccn1 [RTI-7470-44]
IC50 [4]: ~8 nM
reduced potency relative to hTA1 ([3]; rTA1): ~ 90 fold
reduced potency relative to hTA1 [5]: ~ 140 fold

NCCc1ccc(O)c(O)c1 [dopamine]
lowered potency by mutation [6]: 7 fold

c1ccc2nc(N3CCNCC3)ccc2c1 [quipazine]
Normalized Luminescence Counts for WT hTA1 ([7]; M = -5): 4.714 and 4.976 and 5.959
Normalized Luminescence Counts for WT hTA1 ([7]; M = -5.522): 3.012 and 2.619 and 2.979
Normalized Luminescence Counts for WT hTA1 ([7]; M = -6): 0.6873 and 0.2616 and 0.2944
Normalized Luminescence Counts for WT hTA1 ([7]; M = -6.522): 0.06517 and 0.4908 and -0.09854
Normalized Luminescence Counts for WT hTA1 ([7]; M = -7): 0.03243 and 0.2289 and -0.5569
Normalized Luminescence Counts for WT hTA1 ([7]; M = -7.522): -0.0003118 and -0.1313 and -0.0658
Normalized Luminescence Counts for WT hTA1 ([7]; M = -8): 0.2944 and -0.3605 and 0.3598
Normalized Luminescence Counts for WT hTA1 ([7]; M = -8.522): -0.1968 and 0.4581 and 0.1307
Normalized Luminescence Counts for WT hTA1 ([7]; M = -9): -0.2295 and -0.4587 and -0.5242
Normalized Luminescence Counts for WT hTA1 ([7]; M = -9.522): -0.3277 and -0.3605 and -0.6224
Normalized Luminescence Counts for WT hTA1 ([7]; M = -10): -0.164 and -0.2622 and 0.3926
Normalized Luminescence Counts for WT hTA1 ([7]; M = -10.522): 0.3271 and -1.0153 and 0.3926
Normalized Luminescence Counts for WT hTA1 ([7]; M = -11): 0.3598 and 0.06517 and 0.6218
Normalized Luminescence Counts for WT hTA1 ([7]; M = -11.522): 0.4581 and -0.3277 and -0.1968
Normalized Luminescence Counts for WT hTA1 ([7]; M = -12): -0.164 and 0.06517 and -0.09854
Normalized Luminescence Counts for WT hTA1 ([7]; M = -12.522): 0.589 and 1.473 and 0.2944
increase of signal over DMSO-treated controls (hTA1 activation) [8]: ≥ 4 fold

C[C@H]1CNCCc2ccc(Cl)cc21 [lorcaserin]
Normalized Luminescence Counts for WT hTA1 ([7]; M = -5): 36.902 and 34.0112 and 1.008 and 64.4771 and 65.1158 and 60.8849
Normalized Luminescence Counts for WT hTA1 ([7]; M = -5.522): 12.6245 and 12.4103 and 0.5526 and 38.1001 and 37.3361 and 35.7852
Normalized Luminescence Counts for WT hTA1 ([7]; M = -6): 4.327 and 4.728 and 0.4991 and 15.3153 and 15.7258 and 16.125
Normalized Luminescence Counts for WT hTA1 ([7]; M = -6.522): 2.1854 and 0.9809 and 0.8203 and 4.949 and 4.904 and 5.611
Normalized Luminescence Counts for WT hTA1 ([7]; M = -7): 0.4723 and 0.2314 and 1.222 and 2.349 and 1.654 and 2.0983
Normalized Luminescence Counts for WT hTA1 ([7]; M = -7.522): -0.3039 and -0.5448 and 0.6329 and 0.4676 and 0.5018 and 0.5816
Normalized Luminescence Counts for WT hTA1 ([7]; M = -8): 0.7132 and 0.4188 and 1.757 and 0.2053 and 0.05702 and 0.536
Normalized Luminescence Counts for WT hTA1 ([7]; M = -8.522): -0.06302 and 0.9006 and 0.8738 and 0.593 and 0.5702 (2×)
Normalized Luminescence Counts for WT hTA1 ([7]; M = -9): 0.2582 and -0.1433 and 0.5258 and 0.3193 and 0.2737 and 0.3877
Normalized Luminescence Counts for WT hTA1 ([7]; M = -9.522): 0.2582 and -0.4913 and 0.7132 and 0.3877 and 0.2851 and 0.2965
Normalized Luminescence Counts for WT hTA1 ([7]; M = -10): -0.06302 and -0.4378 and 0.6865 and 0.4904 and 0.2737 and 0.2851
Normalized Luminescence Counts for WT hTA1 ([7]; M = -10.522): -0.5448 and -0.8928 and 1.141 and 0.1825 and 0.2281 and -0.06842
Normalized Luminescence Counts for WT hTA1 ([7]; M = -11): 0.1511 and -0.08979 and 0.7668 and -0.1368 and -0.1254 and -0.1482
Normalized Luminescence Counts for WT hTA1 ([7]; M = -11.522): 0.9809 and -0.009489 and 0.6329 and 0.3991 and 0.3421 and 0.2167
Normalized Luminescence Counts for WT hTA1 ([7]; M = -12): 0.6865 and 0.6329 and 1.195 and 0.1825 and 0.0114 and -0.07983
Normalized Luminescence Counts for WT hTA1 ([7]; M = -12.522): 0.4455 and 0.4723 and 1.141 and 0.03421 and 0.0114 and -0.114
increase of signal over DMSO-treated controls (hTA1 activation) [8]: ≥ 4 fold

CNC[C@H](O)c1ccc(O)c(O)c1 [epinephrine]
Normalized Luminescence Counts for WT hTA1 ([7]; M = -5): -0.5341 and -0.7316 and 0.493
Normalized Luminescence Counts for WT hTA1 ([7]; M = -5.522): -0.1785 and 2.231 and -0.218
Normalized Luminescence Counts for WT hTA1 ([7]; M = -6): 0.4535 and -0.139
Normalized Luminescence Counts for WT hTA1 ([7]; M = -6.522): 0.493 and 1.046 and -0.7316
Normalized Luminescence Counts for WT hTA1 ([7]; M = -7): -1.759 and -1.996 and -0.9686
Normalized Luminescence Counts for WT hTA1 ([7]; M = -7.522): -2.549 and -2.2723 and -2.114
Normalized Luminescence Counts for WT hTA1 ([7]; M = -8): -2.035 and -0.8106 and -2.154
Normalized Luminescence Counts for WT hTA1 ([7]; M = -8.522): -1.917 and -1.68 and -2.233
Normalized Luminescence Counts for WT hTA1 ([7]; M = -9): -2.391 and -2.075 and -2.628
Normalized Luminescence Counts for WT hTA1 ([7]; M = -9.522): -2.588 and -2.667 and -2.549
Normalized Luminescence Counts for WT hTA1 ([7]; M = -10): -2.865 and -2.47 and -2.391
Normalized Luminescence Counts for WT hTA1 ([7]; M = -10.522): -2.628 and -2.193 and -2.549
Normalized Luminescence Counts for WT hTA1 ([7]; M = -11): -2.3118 and -2.193 and -2.114
Normalized Luminescence Counts for WT hTA1 ([7]; M = -11.522): -2.391 and -1.4427 and -1.956
Normalized Luminescence Counts for WT hTA1 ([7]; M = -12): -2.233 and -1.4427 and -1.917
Normalized Luminescence Counts for WT hTA1 ([7]; M = -12.522): -2.075 and -2.114 and -1.798
increase of signal over DMSO-treated controls (hTA1 activation) [8]: ≥ 4 fold

C[C@H](N)Cn1ccc2cc(F)c(Cl)cc21 [Ro600175]
Normalized Luminescence Counts for WT hTA1 ([7]; M = -5): 52.641 and 46.7523 and 44.37 and 49.7206 and 44.9424 and 49.1048
Normalized Luminescence Counts for WT hTA1 ([7]; M = -5.522): 20.1192 and 21.0025 and 20.1995 and 33.6184 and 30.3798 and 33.3903
Normalized Luminescence Counts for WT hTA1 ([7]; M = -6): 10.3493 and 9.439 and 10.7776 and 14.1863 and 14.9846 and 14.3574
Normalized Luminescence Counts for WT hTA1 ([7]; M = -6.522): 3.39 and 1.971 and 3.3096 and 6.785 and 7.013 and 6.8993
Normalized Luminescence Counts for WT hTA1 ([7]; M = -7): 0.6865 and 0.9274 and 0.7668 and 2.03 and 1.973 and 1.7904
Normalized Luminescence Counts for WT hTA1 ([7]; M = -7.522): -0.2504 and 0.2582 and -0.2236 and 0.6842 and 0.6044 and 0.3991
Normalized Luminescence Counts for WT hTA1 ([7]; M = -8): 0.5258 and 0.5794 and 1.275 and 0.4333 and 0.3763 and 0.3649
Normalized Luminescence Counts for WT hTA1 ([7]; M = -8.522): 0.4991 and -0.1166 and 0.392 and 0.03421 and 0.3649 and 0.2509
Normalized Luminescence Counts for WT hTA1 ([7]; M = -9): 0.01728 and 0.7935 and -0.1969 and 0.1026 and 0.3877 and 0.2737
Normalized Luminescence Counts for WT hTA1 ([7]; M = -9.522): 0.07081 and -0.08979 and -0.1166 and -0.1482 and -0.114 and 0.07983
Normalized Luminescence Counts for WT hTA1 ([7]; M = -10): 0.1243 and -0.009489 and 0.4188 and -0.1825 and -0.0114 and -0.03421
Normalized Luminescence Counts for WT hTA1 ([7]; M = -10.522): -0.06302 and -0.3842 and 0.1779 and -0.2053 and 0 and -0.05702
Normalized Luminescence Counts for WT hTA1 ([7]; M = -11): 0.6329 and 0.3117 and 0.7132 and -0.06842 and 0.4447 and 0.2509
Normalized Luminescence Counts for WT hTA1 ([7]; M = -11.522): 0.4188 and 0.7668 and 0.8738 and 0.4676 and 0.2509 and 0.707
Normalized Luminescence Counts for WT hTA1 ([7]; M = -12): 0.5258 and 0.5526 and 1.302 and -0.114 and 0.2737 and 0.1368
Normalized Luminescence Counts for WT hTA1 ([7]; M = -12.522): 0.2046 and 0.1779 and 0.2849 and 0.2623 and 0.4219 and 0.2395
increase of signal over DMSO-treated controls (hTA1 activation) [8]: ≥ 4 fold
